Our source for the T/C values is PubChem BioAssay AID330 (DTP/NCI, 2004).

Where “and” joins values, the source holds several entries; their conditions need not be identical. Equal entries are not always repeated. Toxic doses and inconclusive results are not listed.

This assay relates to P388 leukemia ip, CD2F1 mice, survival T/C. Description: NCI In Vivo Anticancer Drug Screen. Data for tumor model P388 Leukemia (intraperitoneal) in CD2F1 (CDF1) mice. The settings on record: endpoint: median survival time, higher = longer survival. In outline:
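Mice carrying the transplanted tumor received test compound or vehicle. Survival was recorded in each group, and the value is the treated-group measurement divided by that of the vehicle-treated control group.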

[1] abbreviates: dose: 100.0 mg/kg/injection, schedule: Q04DX003 (ip), vehicle: saline with Tween-80.
[2] abbreviates: dose: 200.0 mg/kg/injection, schedule: Q04DX003 (ip), vehicle: saline with Tween-80.
Where [3] appears, read: dose: 400.0 mg/kg/injection, schedule: Q04DX003 (ip), vehicle: saline with Tween-80.
The mark [4] stands for this setting: dose: 50.0 mg/kg/injection, schedule: Q01DX005 (ip), vehicle: saline with Tween-80.
Where [5] appears, read: dose: 12.5 mg/kg/injection, schedule: Q01DX005 (ip), vehicle: saline with Tween-80.
Setting [6] is: dose: 25.0 mg/kg/injection, schedule: Q01DX005 (ip), vehicle: saline with Tween-80.

Take `CN(C)c1c2c(oc(=O)c1Cl)-c1ccccc1OCC2`: the T/C is, setting by setting: (dose: 60.0 mg/kg/injection, schedule: Q01DX005 (ip), vehicle: Klucel (hydroxypropylcellulose) (HPC)) 101 % of control; (dose: 120.0 mg/kg/injection, schedule: Q01DX005 (ip), vehicle: Klucel (hydroxypropylcellulose) (HPC)) 103 % of control; (dose: 240.0 mg/kg/injection, schedule: Q01DX005 (ip), vehicle: Klucel (hydroxypropylcellulose) (HPC)) 107 % of control.
For `CCc1nnc2ccncn12`, the T/C was 97 % of control under setting [1], 90 % of control under setting [2] and 102 % of control under setting [3].
For `CCOC(=O)NC(C)CC(C)NC(=O)OCC` (stereo unspecified), the T/C runs as follows: (dose: 50.0 mg/kg/injection, schedule: Q01DX001 (ip), vehicle: Klucel (hydroxypropylcellulose) (HPC)) 94 % of control; (dose: 100.0 mg/kg/injection, schedule: Q01DX001 (ip), vehicle: Klucel (hydroxypropylcellulose) (HPC)) 92 % of control; (dose: 200.0 mg/kg/injection, schedule: Q01DX001 (ip), vehicle: Klucel (hydroxypropylcellulose) (HPC)) 93 % of control.
For the molecule `NCC(S)c1ccc(Cl)cc1` (stereo unspecified), the T/C was 100 % of control (dose: 12.5 mg/kg/injection, schedule: Q01DX001 (ip), vehicle: saline); 100 % of control (dose: 25.0 mg/kg/injection, schedule: Q01DX001 (ip), vehicle: saline); 100 % of control (dose: 50.0 mg/kg/injection, schedule: Q01DX001 (ip), vehicle: saline).
`O=C(O)C1CSC(c2ccncc2)N1` (stereo unspecified): the T/C (dose: 50.0 mg/kg/injection, schedule: Q01DX009 (ip), vehicle: saline) is 96 % of control and 97 % of control; the T/C (dose: 100.0 mg/kg/injection, schedule: Q01DX009 (ip), vehicle: saline) was 96 % of control; the T/C (dose: 200.0 mg/kg/injection, schedule: Q01DX009 (ip), vehicle: saline) was 94 % of control.
For the molecule `CS(=O)(=O)OCCCCCCCCCCCN1CCOCC1`, the T/C is 98 % of control under setting [4] and 94 % of control (dose: 100.0 mg/kg/injection, schedule: Q01DX005 (ip), vehicle: saline with Tween-80).
Consider `CC1=C(C)C(=O)c2cc3c(-c4ccccc4)oc(-c4ccccc4)c3cc2C1=O`, for which the T/C is, setting by setting: under setting [5], 93 % of control; under setting [6], 95 % of control; under setting [4], 86 % of control and 96 % of control.
On to `Cc1nc2c([N+](=O)[O-])c(Nc3ccc(O)cc3)c([N+](=O)[O-])cc2[nH]1`, for which the T/C under setting [1] is 99 % of control, the T/C under setting [2] is 92 % of control and the T/C under setting [3] is 92 % of control.
Regarding `Nc1nc(Cl)c2ncn(C3OC(CO)C(O)C3O)c2n1` (stereo unspecified), the T/C is 98 % of control (dose: 200.0 mg/kg/injection, schedule: Q01DX009 (ip), vehicle: saline with Tween-80) and 100 % of control (dose: 400.0 mg/kg/injection, schedule: Q01DX009 (ip), vehicle: saline with Tween-80).
Regarding `CN(c1ccccc1)C(C#N)CC(C)(C)C` (stereo unspecified), the T/C reads like this: (dose: 50.0 mg/kg/injection, schedule: Q01DX005 (ip), vehicle: Klucel (hydroxypropylcellulose) (HPC)) 98 % of control; (dose: 100.0 mg/kg/injection, schedule: Q01DX005 (ip), vehicle: Klucel (hydroxypropylcellulose) (HPC)) 107 % of control.
For the molecule `N#CC(=Nc1ccc(F)cc1F)C1=C(O)c2ccccc2C1=O`, the T/C was 97 % of control under setting [5], 105 % of control under setting [6] and 100 % of control under setting [4].
Turning to `CC(C)(C)NC(=O)OCc1c(COC(=O)NC(C)(C)C)c(-c2ccc(Cl)c(Cl)c2)n2c1CCC2`, the T/C was 123 % of control (dose: 6.25 mg/kg/injection, schedule: Q01DX009 (ip), vehicle: distilled water + Tween-80); 124 % of control (dose: 12.5 mg/kg/injection, schedule: Q01DX009 (ip), vehicle: distilled water + Tween-80); 158 % of control and 164 % of control (dose: 50.0 mg/kg/injection, schedule: Q01DX009 (ip), vehicle: distilled water + Tween-80); 164 % of control and 167 % of control (dose: 100.0 mg/kg/injection, schedule: Q01DX009 (ip), vehicle: distilled water + Tween-80); 172 % of control (dose: 200.0 mg/kg/injection, schedule: Q01DX009 (ip), vehicle: distilled water + Tween-80); 117 % of control (dose: 400.0 mg/kg/injection, schedule: Q01DX009 (ip), vehicle: distilled water + Tween-80).
